SMILES strings stand for the structures. Where two headings read alike, the source gives them in different places. A value given as a limit tells only on which side of the number the result lay.

Series [1] concerns Her2 exon 20 insertion YVMA transduced NIH-3T3 cell line. In words: Cell proliferation, Her2 YVMAins NIH-3T3 (CellTiter-Glo, 72 h).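 Further: viable cells quantified by ATP luminescence, growth over a day-zero baseline plate expressed as percent of DMSO control growth, compound dilution series in 10% FBS medium.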 It is filed as cell-based. The conditions noted are these: Mus musculus, NIH3T3, 72 h, Her2 YVMAins cells, 72 h proliferation; read-out: Her2 Exon 20 YVMA insertion GI50.
Experimental: (§1) WT or mutant cells were seeded in 384 well plates at appropriate concentrations with corresponding growth media supplemented with 10% FBS, for each experiment, identical plates were prepared in duplicates, and the plates were incubated overnight. On the next day, one of each duplicated plates was dosed with tested compounds at a series of concentrations, and another one of the duplicated plate was analysied for G0 value. The dosed plates were incubate for another 72 h at 37° C. with 5% CO2 and the number of viable cells in each well of the G0 plates or the dosed plates were measured by CellTiter-Glo® Luminescent Cell Viability Assay (Promega). This assay is a luminescent method for determining the number viable cells through measurement of cellular ATP concentration by detection of luciferase activity. Detection reagents (15 µl) was dispensed into per well, and the plates were incubate for 30 min at room temperature. Then, the luminescence in each well was measured using the Envision plate reader (PerkinElmer). The percentage of proliferation was calculated based on the formula: %Proliferation= 100 × (G3 value of sample well-Go value)/(G3 value of DMSO control-Go value).
Series [2] has as its target T1, human EGFR exon 20 V769_D770insASV (Homo sapiens, UniProt P00533, INS769ASV).
T1 construct: expressed in transfected cells; host or cells: Ba/F3 (DSMZ ACC-300), lentiviral transduction, puromycin selection, IL3 depletion
In words: EGFR Exon20 ASV insertion cellular phosphorylation inhibition (MSD pEGFR Y1068/total EGFR).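 Further: electrochemiluminescent readout on an MSD SECTOR Imager, IL3-independent transduced cells in medium with 1% FBS, compound concentration series at 37 °C and 5% CO2.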 It is filed as cell-based. The conditions noted are these: Ba/F3 EGFR ASV ins cells, 4 h compound, p-EGFR(Y1068)/total EGFR.
Experimental: To generate the EGFR exon 20 V769_D770insASV transduced Ba/F3 cell line, the parental Ba/F3 cells were infected with the recombinant EGFR V769_D770insASV lentivirus and then followed by 1 µg/ml of puromycin selection and IL3 depletion. The resulting cell line expresses constitutively phosphorylated EGFR protein and proliferates in the absence of IL3, which could be used for in vitro PD and anti-proliferation assays.
(§2) One day before the test, WT or mutant cells were seeded in 96 well plates at appropriate concentrations with corresponding growth media supplemented with 1% FBS, and incubated overnight. The next day, tested compounds at a series of concentrations were added into each individual well of the plates, and the plates were incubated for 4 h at 37° C. with 5% CO2.
The EGFR (Y1068) phosphorylation level (activity) of cells in each well were then measured with MSD kit named “MULTI-SPOT®96 4-Spot HB Prototype EGFR Triplex [sequence]: pEGFR(Tyr1068),pEGFR(Tyr1173), Total EGFR” according to the manufacturer’s instruction (MESO SCALE DISCOVERY, Cat# N45ZB-1). The assay is an electrochemiluminescent method for determining both phosphorylated and total EGFR of cells with an MSD SECTOR® Imager and the ratio of p-EGFR/total EGFR can be generated by the machine. The Her2 (Y1248) phosphorylation level (activity) of cells in each well were measured with MSD Kit named “Phospho-ErbB2 (Tyr1248) Assay Whole Cell Lysate Kit” according to the manufacturer’s instruction (MESO SCALE DISCOVERY, Cat# K151CLD-3). The assay is an electrochemiluminescent method (MESO SCALE DISCOVERY) for determining both phosphorylated and total Her2 of cells with an MSD SECTOR® Imager and then the ratio of p-Her2/total Her2 can be generated by the machine.

Series [3] has as its target T2, human Her2 exon 20 insertion mutation YVMA (Homo sapiens, UniProt P04626, INS775YVMA).
T2 construct: expressed in transfected cells; host or cells: NIH-3T3, lentiviral transduction, puromycin selection
The series is described as follows: Her2 Exon 20 YVMA insertion cellular phosphorylation inhibition (MSD p-Her2 Y1248/total Her2).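 Further: lentivirally transduced NIH-3T3 cells in 1% FBS medium, electrochemiluminescent MSD read-out, graded compound concentrations at 37 °C.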 The settings on record: Her2 YVMAins cells, 4 h compound. The series is classed as cell-based.

A further series has as its target T3, WT EGFR (Homo sapiens, UniProt P00533).
T3 construct: host or cells: A-431
In words: WT EGFR cellular phosphorylation inhibition in A-431 (hEGF stimulated, MSD).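 Further: electrochemiluminescence read-out of EGFR Tyr1068 phosphorylation expressed as ratio to total EGFR, cells kept in medium with 1% FBS, compounds tested as a concentration series.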 It is filed as cell-based. The settings on record: A431 cells, 4 h compound, then 100 ng/ml hEGF 10 min.

The test system of a further series is OCI-LY-10 cells. The series is described as follows: BTK (wt) cell proliferation, OCI-LY-10 (CellTiter-Glo, 72 h).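 Further: viable cells quantified via cellular ATP luminescence, proliferation given as percent of DMSO control after subtracting a duplicate plate read at time of dosing.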 The settings on record: OCI-LY-10 cells, 72 h, CellTiter-Glo, read-out: BTK WT OCI-LY-10 GI50. It is filed as cell-based.
Another series relates to TMD-8 cells. In words: BTK (wt) cell proliferation, TMD-8 (CellTiter-Glo, 72 h).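 Further: viable cells quantified by ATP-based luminescence, proliferation expressed as percent of DMSO control after subtracting a time-zero baseline plate read at dosing.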 The series is classed as cell-based. The conditions noted are these: Homo sapiens, TMD8, 72 h, TMD-8 cells, 72 h, CellTiter-Glo; read-out: BTK WT TMD-8 GI50.
The target of another series is T4, EGFR L858R&T790M (Homo sapiens, UniProt P00533, L858R/T790M).
T4 construct: host or cells: NCI-H1975
The series is described as follows: EGFR L858R and T790M cellular phosphorylation inhibition in NCI-H1975 (MSD).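 Further: phosphorylated and total EGFR detected by electrochemiluminescence, cells exposed to compound in medium containing 1% FBS at 37 °C.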 It is filed as cell-based. The settings on record: NCI-H1975 cells, 4 h compound, p-EGFR(Y1068)/total EGFR; read-out: EGFR L858R and T790M mutation IC50.

For the next series, the system named is Ba/F3 EGFR NPH ins cells. In words: Cell proliferation, Ba/F3 EGFR NPH ins (CellTiter-Glo, 72 h).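 Further: IL3-independent cells carrying constitutively phosphorylated EGFR, compound dilution series, viable cells quantified by ATP luminescence, growth relative to DMSO wells after subtracting pre-dosing (day 0) baseline.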 It is filed as cell-based. The conditions noted are these: Ba/F3 EGFR, 72 h, Ba/F3 EGFR NPH ins, 72 h proliferation; read-out: EGFR Exon20 NPH insertion GI50.
A further series concerns WT EGFR cell line A-431. In words: Cell proliferation, WT EGFR A431 (CellTiter-Glo, 72 h).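 Further: proliferation from a luminescent ATP viability signal, expressed as 100 × (treated minus time-zero plate) over (DMSO control minus time-zero plate), cells grown with 10% FBS.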 The series is classed as cell-based. The conditions noted are these: Homo sapiens, A-431, 72 h, A431, 72 h proliferation; read-out: EGFR WT A431 GI50.
The nature of series [4]: In vitro human hepatocytes clearance assay. The conditions noted are these: both, human, cryopreserved human hepatocytes (suspension), human hepatocytes Clint (µL/min/10^6cells), mixed gender human hepatocytes, incubation up to 100 min.
The subject of series [5] is NCI-H1975 EGFR L858R/T790M cells. In words: Cell proliferation, NCI-H1975 EGFR L858R/T790M (CellTiter-Glo, 72 h).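 Further: viable cells quantified by luciferase-based ATP luminescence, proliferation expressed relative to DMSO-treated wells (100%) after subtracting a parallel plate read at the time of dosing.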 The conditions noted are these: Homo sapiens, NCI-H1975, 72 h, NCI-H1975, 72 h proliferation; read-out: EGFR L858R and T790M mutation GI50. It is filed as cell-based.
For another series, the system named is Ba/F3 EGFR ASV ins cells. In words: Cell proliferation, Ba/F3 EGFR ASV ins (CellTiter-Glo, 72 h).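 Further: IL3-independent Ba/F3 cells transduced with EGFR V769_D770insASV, cellular ATP luminescence after compound exposure, growth relative to DMSO control with the day-0 baseline reading subtracted.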 The series is classed as cell-based. The settings on record: Ba/F3 EGFR, 72 h, Ba/F3 EGFR ASV ins, 72 h proliferation; read-out: EGFR Exon20 ASV insertion GI50.
Series [6] deals with T5, human EGFR exon 20 H773_V774insNPH (Homo sapiens, UniProt P00533, INS773NPH).
T5 construct: host or cells: Ba/F3
The series is described as follows: EGFR Exon20 NPH insertion cellular phosphorylation inhibition (MSD pEGFR Y1068/total EGFR).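 Further: IL3-independent Ba/F3 cells with constitutively phosphorylated EGFR, compound exposure at 37 °C under 5% CO2, electrochemiluminescent MSD measurement of the p-EGFR to total EGFR ratio.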 The series is classed as cell-based. The conditions noted are these: Ba/F3 EGFR NPH ins cells, 4 h compound, p-EGFR(Y1068)/total EGFR.
Experimental: as §2
The EGFR (Y1068) phosphorylation level (activity) of cells in each well were then measured with MSD kit named “MULTI-SPOT®96 4-Spot HB Prototype EGFR Triplex [sequence]: pEGFR(Tyr1068),pEGFR(Tyr1173), Total EGFR” according to the manufacturer’s instruction (MESO SCALE DISCOVERY, Cat# N45ZB-1). The assay is an electrochemiluminescent method for determining both phosphorylated and total EGFR of cells with an MSD SECTOR® Imager and the ratio of p-EGFR/total EGFR can be generated by the machine.

Series [7] is described as follows: In vitro rat hepatocytes clearance assay. The conditions noted are these: male, rat, cryopreserved rat hepatocytes (suspension), rat hepatocytes Clint (µL/min/10^6cells), 1 µM-range incubation up to 100 min.
In the next series the test system is Ri-1 cells. In words: BTK (wt) cell proliferation, Ri-1 (CellTiter-Glo, 72 h).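 Further: viable cells quantified as cellular ATP luminescence, proliferation normalized to a time-zero plate and the DMSO control, compounds tested across a dilution series.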 It is filed as cell-based. The conditions noted are these: Ri-1 cells, 72 h, CellTiter-Glo, read-out: BTK WT Ri-1 GI50.
Another series concerns DB cells. In words: BTK (wt) cell proliferation, DB (CellTiter-Glo, 72 h).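 Further: DB cells in 384-well plates given a dilution series of compound, viable cells read by ATP luminescence, growth expressed versus DMSO control after subtracting a time-zero plate reading.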 The series is classed as cell-based. The conditions noted are these: Homo sapiens, DB, DB cells, CellTiter-Glo, read-out: Non-BCR activated DB GI50.

T3 sequence (P00533 25-1210): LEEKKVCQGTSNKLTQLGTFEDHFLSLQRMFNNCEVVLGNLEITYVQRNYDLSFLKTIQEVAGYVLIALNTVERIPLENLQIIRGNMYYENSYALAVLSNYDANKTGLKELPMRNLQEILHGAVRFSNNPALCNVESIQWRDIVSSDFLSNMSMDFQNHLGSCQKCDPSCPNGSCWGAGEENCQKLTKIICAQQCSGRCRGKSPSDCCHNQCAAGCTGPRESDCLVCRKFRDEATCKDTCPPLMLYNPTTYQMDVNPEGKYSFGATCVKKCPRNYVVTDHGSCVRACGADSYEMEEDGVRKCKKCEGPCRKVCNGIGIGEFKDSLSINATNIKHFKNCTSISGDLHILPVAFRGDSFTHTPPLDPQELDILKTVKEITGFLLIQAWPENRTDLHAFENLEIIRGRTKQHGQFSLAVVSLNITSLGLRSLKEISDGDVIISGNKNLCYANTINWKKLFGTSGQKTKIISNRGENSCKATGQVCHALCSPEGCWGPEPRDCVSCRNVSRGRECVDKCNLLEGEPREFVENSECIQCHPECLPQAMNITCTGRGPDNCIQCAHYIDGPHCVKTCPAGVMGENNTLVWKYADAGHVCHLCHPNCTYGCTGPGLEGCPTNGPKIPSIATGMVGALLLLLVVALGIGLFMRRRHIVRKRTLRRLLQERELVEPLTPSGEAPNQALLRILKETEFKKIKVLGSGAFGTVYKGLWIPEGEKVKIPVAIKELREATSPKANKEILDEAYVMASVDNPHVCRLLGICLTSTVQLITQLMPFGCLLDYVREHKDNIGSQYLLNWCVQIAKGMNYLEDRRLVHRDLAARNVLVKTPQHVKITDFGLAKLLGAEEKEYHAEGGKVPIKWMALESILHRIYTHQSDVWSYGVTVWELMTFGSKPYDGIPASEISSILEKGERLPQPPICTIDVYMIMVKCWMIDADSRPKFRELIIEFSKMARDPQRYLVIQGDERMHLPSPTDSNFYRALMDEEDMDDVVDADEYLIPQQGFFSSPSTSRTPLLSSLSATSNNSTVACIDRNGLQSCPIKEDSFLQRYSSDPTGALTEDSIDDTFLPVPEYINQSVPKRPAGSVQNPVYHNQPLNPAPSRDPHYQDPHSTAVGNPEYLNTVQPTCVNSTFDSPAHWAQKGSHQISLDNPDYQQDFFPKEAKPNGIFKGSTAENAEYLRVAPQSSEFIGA
T5 sequence (P00533 with tags, fused parts or gaps INS773NPH): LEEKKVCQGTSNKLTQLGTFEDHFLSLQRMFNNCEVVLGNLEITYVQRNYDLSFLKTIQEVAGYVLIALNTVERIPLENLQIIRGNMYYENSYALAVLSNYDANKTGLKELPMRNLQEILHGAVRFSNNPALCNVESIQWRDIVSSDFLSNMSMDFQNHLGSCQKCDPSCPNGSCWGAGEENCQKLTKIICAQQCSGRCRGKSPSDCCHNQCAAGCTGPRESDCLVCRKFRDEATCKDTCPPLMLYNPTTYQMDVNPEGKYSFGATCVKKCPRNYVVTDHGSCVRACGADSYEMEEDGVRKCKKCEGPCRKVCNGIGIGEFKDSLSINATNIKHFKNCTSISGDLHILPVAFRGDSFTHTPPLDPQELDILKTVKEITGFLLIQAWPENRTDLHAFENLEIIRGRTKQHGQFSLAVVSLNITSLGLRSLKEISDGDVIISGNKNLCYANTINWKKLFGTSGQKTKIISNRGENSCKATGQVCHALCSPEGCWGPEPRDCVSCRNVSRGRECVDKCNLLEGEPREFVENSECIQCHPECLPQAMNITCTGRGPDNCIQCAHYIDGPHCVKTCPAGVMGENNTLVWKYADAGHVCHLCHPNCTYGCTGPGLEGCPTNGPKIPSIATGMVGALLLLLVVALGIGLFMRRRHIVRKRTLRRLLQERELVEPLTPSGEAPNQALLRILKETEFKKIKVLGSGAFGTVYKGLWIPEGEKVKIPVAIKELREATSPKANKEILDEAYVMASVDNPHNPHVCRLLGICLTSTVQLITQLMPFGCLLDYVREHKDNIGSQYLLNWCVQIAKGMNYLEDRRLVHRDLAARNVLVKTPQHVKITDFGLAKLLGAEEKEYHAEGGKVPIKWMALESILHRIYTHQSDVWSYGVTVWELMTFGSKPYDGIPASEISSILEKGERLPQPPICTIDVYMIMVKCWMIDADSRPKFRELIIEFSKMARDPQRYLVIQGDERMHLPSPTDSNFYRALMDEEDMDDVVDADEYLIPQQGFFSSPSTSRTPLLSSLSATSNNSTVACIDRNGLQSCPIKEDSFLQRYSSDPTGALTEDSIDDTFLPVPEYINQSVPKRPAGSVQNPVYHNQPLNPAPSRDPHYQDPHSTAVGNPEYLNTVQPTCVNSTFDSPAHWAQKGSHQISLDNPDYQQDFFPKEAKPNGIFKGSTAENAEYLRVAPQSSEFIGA
T2 sequence (P04626 with tags, fused parts or gaps INS775YVMA): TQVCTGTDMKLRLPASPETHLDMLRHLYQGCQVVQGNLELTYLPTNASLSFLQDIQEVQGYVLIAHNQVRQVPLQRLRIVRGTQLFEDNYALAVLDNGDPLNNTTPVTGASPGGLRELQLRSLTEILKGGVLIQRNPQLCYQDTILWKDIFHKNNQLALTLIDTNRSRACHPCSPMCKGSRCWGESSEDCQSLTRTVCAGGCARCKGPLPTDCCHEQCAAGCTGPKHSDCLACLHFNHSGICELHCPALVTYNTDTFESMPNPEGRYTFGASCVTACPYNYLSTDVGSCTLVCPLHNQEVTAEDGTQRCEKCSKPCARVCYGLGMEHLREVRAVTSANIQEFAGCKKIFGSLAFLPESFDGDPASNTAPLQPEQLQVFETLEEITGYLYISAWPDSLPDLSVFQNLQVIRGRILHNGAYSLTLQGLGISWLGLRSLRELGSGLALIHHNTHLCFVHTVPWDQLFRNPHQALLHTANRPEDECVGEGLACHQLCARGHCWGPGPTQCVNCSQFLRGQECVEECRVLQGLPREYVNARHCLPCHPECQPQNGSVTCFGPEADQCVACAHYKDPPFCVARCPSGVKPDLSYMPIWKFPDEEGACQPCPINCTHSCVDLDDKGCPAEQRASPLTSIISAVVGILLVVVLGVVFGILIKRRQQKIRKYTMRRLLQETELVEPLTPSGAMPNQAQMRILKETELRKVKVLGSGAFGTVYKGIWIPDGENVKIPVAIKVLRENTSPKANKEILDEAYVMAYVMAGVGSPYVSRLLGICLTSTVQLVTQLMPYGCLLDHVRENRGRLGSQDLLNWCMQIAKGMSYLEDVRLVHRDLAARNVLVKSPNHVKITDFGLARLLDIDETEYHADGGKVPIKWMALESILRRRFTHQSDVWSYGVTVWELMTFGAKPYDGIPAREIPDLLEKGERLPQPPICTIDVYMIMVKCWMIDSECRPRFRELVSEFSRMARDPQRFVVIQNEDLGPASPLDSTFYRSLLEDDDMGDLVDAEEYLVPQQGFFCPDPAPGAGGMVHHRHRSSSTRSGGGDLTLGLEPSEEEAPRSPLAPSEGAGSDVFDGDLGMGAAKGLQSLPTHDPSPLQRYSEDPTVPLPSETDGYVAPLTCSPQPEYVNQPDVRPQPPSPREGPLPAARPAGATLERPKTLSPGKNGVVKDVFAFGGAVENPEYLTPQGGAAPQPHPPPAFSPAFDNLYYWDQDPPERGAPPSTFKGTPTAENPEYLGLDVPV
T1 sequence (P00533 with tags, fused parts or gaps INS769ASV): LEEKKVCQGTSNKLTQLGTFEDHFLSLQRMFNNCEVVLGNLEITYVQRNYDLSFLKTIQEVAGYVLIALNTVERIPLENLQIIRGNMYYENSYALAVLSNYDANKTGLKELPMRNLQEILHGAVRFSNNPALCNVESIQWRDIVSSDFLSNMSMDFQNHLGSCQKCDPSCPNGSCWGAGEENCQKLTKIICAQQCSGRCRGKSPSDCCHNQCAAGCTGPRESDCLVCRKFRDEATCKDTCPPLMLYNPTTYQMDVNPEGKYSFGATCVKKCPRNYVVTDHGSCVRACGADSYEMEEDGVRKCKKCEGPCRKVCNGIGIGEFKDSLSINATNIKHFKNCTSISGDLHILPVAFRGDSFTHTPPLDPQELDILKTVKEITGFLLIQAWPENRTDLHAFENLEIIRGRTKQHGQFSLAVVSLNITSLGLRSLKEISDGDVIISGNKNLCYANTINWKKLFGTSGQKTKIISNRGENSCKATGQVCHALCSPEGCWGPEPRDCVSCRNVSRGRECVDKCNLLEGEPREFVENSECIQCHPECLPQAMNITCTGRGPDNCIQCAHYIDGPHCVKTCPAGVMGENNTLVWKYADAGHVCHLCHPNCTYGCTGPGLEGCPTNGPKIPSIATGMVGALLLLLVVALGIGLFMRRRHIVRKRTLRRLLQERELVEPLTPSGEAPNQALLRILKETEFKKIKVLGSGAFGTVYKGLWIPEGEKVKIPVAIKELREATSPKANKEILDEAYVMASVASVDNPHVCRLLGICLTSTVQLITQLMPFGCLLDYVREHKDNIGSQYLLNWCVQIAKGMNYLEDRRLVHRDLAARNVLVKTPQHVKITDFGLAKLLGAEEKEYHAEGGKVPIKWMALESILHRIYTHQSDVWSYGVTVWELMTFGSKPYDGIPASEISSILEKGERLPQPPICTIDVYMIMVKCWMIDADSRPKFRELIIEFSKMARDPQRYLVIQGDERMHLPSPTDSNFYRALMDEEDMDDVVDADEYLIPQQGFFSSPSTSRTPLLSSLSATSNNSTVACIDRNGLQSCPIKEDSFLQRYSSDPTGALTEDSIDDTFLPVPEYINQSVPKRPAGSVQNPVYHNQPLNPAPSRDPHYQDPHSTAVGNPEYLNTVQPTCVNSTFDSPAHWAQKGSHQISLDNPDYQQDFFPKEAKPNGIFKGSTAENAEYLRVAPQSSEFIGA
Experimental for Ba/F3 EGFR NPH ins cells: Similar to recombinant human EGFR exon 20 H769_V770insASV Ba/F3 cell line, the recombinant human EGFR exon 20 H773_V774insNPH Ba/F3 cell line also expresses constitutively phosphorylated EGFR protein and proliferates in the absence of IL3, which could be used for in vitro PD and anti-proliferation assays.
as §1

Consider `C=CC(=O)Nc1cc(Nc2ncnc(Nc3cc(F)c(Cl)cc3C(C)(C)O)n2)c(OC)cc1N1CC[C@@H](N(C)C)C1` [Compound 51, (R)-N-(5-(4-(4-chloro-5-fluoro-2-(2-hydroxypropan-2-yl)phenylamino)-1,3,5-triazin-2-ylamino)-2-(3-(dimethylamino)pyrrolidin-1-yl)-4-methoxyphenyl)acrylamide], for which the GI50 came out at 105 nM in [1]; 6.73 nM in the series on OCI-LY-10 cells (Homo sapiens, OCI-Ly10, 72 h); 3.62 nM with TMD-8 cells; 52.9 nM in the series with Ba/F3 EGFR NPH ins cells; 13.4 nM in the series on WT EGFR cell line A-431; 1.9 nM in series [5]. Further, the GI50 in the series on Ba/F3 EGFR ASV ins cells was 35.4 nM; in the series with Ri-1 cells (Ri-1, 72 h), 10.3 nM; in the series with DB cells it was more than 3000 nM. The half-maximal inhibitory concentration (IC50) in [2] turned out to be 16.1 nM; in series [3], 19.9 nM; on WT EGFR it was 12.6 nM; on EGFR L858R&T790M, 1 nM; in [6], 28.6 nM. The results for the hepatocyte CLint at 1 µM in [4] and in [7] were 4.02 µL/min/1e6 cells and 5.97 µL/min/1e6 cells, respectively.

`C=CC(=O)Nc1cc(Nc2ncnc(Nc3cc(Cl)c(F)cc3C(C)(C)O)n2)c(OC)cc1N1CC[C@@H](NC)C1` [Compound 73, (R)-N-(5-(4-(5-chloro-4-fluoro-2-(2-hydroxypropan-2-yl)phenylamino)-1,3,5-triazin-2-ylamino)-4-methoxy-2-(3-(methylamino)pyrrolidin-1-yl)phenyl) acrylamide]: the GI50 in series [1] was 26 nM; with OCI-LY-10 cells (Homo sapiens, OCI-Ly10, 72 h), 16.3 nM; in the series on TMD-8 cells, 3.75 nM; with Ba/F3 EGFR NPH ins cells, 43.2 nM; with WT EGFR cell line A-431, 8 nM; in series [5], 3.3 nM. In addition, the 50% growth inhibitory concentration (GI50) with Ba/F3 EGFR ASV ins cells is 27.4 nM; in the series with Ri-1 cells (Ri-1, 72 h), 151 nM; in the series on DB cells, more than 3000 nM. Moreover, the IC50 in series [2] was found to be 8.6 nM; in series [3], 12.2 nM; against WT EGFR, 27.8 nM; at EGFR L858R&T790M, 0.7 nM; in series [6], 22.6 nM. The intrinsic clearance (hepatocyte CLint) at 1 µM is 1.1 µL/min/1e6 cells in series [4] and 6.15 µL/min/1e6 cells in [7].

For the compound `C=CC(=O)Nc1cc(Nc2ncnc(Nc3cc(Cl)c(Cl)cc3C(C)(C)O)n2)c(OC)cc1N1CC[C@@H](N(C)C)C1` [Compound 61, (R)-N-(5-(4-(4,5-dichloro-2-(2-hydroxypropan-2-yl)phenylamino)-1,3,5-triazin-2-ylamino)-2-(3-(dimethylamino)pyrrolidin-1-yl)-4-methoxyphenyl)acry lamide], the 50% growth inhibitory concentration (GI50) was 87.8 nM in series [1]; 2.72 nM in the series on OCI-LY-10 cells (Homo sapiens, OCI-Ly10, 72 h); 1.03 nM in the series with TMD-8 cells; 18.8 nM with Ba/F3 EGFR NPH ins cells; 12.4 nM in the series on WT EGFR cell line A-431; 2.1 nM in series [5]. The GI50 was 25.6 nM in the series on Ba/F3 EGFR ASV ins cells; 5.62 nM in the series with Ri-1 cells (Ri-1, 72 h); 1510 nM in the series with DB cells. Also, the IC50 in [2] was determined as 12.3 nM; in series [3], 9 nM; at WT EGFR, 18 nM; on EGFR L858R&T790M, 0.4 nM; in series [6], 14.2 nM. The hepatocyte CLint at 1 µM stood at 2.71 µL/min/1e6 cells in [4] and 7.9 µL/min/1e6 cells in series [7].

As for `C=CC(=O)Nc1cc(Nc2nccc(Nc3cc(Cl)c(Cl)cc3C(C)(C)O)n2)c(OC)cc1N1CC[C@@H](N(C)C)C1` [Compound 68, (R)-N-(5-(4-(4,5-dichloro-2-(2-hydroxypropan-2-yl)phenylamino)pyrimidin-2-ylamino)-2-(3-(dimethylamino)pyrrolidin-1-yl)-4-methoxyphenyl)acrylamide], the 50% growth inhibitory concentration (GI50) in series [1] was 96.7 nM; in the series with OCI-LY-10 cells (Homo sapiens, OCI-Ly10, 72 h), 11.4 nM; in the series with TMD-8 cells, 3.6 nM; in the series on Ba/F3 EGFR NPH ins cells, 33 nM; in the series on WT EGFR cell line A-431, 20.8 nM; in series [5], 2.8 nM. In addition, the 50% growth inhibitory concentration (GI50) with Ba/F3 EGFR ASV ins cells was found to be 46.1 nM; with Ri-1 cells (Ri-1, 72 h), 13.6 nM; with DB cells, 2510 nM. Further, the 50% inhibitory concentration (IC50) in series [2] came out at 27 nM; in series [3], 15.3 nM; against WT EGFR, 136 nM; on EGFR L858R&T790M, 1.7 nM; in series [6], 31.5 nM. Further, the hepatocyte CLint at 1 µM in series [4] was found to be 3.89 µL/min/1e6 cells; in series [7], 17.5 µL/min/1e6 cells.

Take `[2H]C([2H])([2H])N(CCN(C)c1cc(OC)c(Nc2ncnc(Nc3cc(F)c(Cl)cc3C(C)(C)O)n2)cc1NC(=O)C=C)C([2H])([2H])[2H]` [Compound 37, N-(2-((2-(bis(methyl-d3)amino)ethyl)(methyl)amino)-5-((4-((4-chloro-5-fluoro-2-(2-hydroxypropan-2-yl)phenyl)amino)-1,3,5-triazin-2-yl)amino)-4-methoxyphenyl) acrylamide]: the 50% growth inhibitory concentration (GI50) in series [1] turned out to be 22.3 nM; with OCI-LY-10 cells (Homo sapiens, OCI-Ly10, 72 h) it was 14.6 nM; with TMD-8 cells it was 10 nM; with Ba/F3 EGFR NPH ins cells, 22.9 nM; in the series with WT EGFR cell line A-431, 10.3 nM; in [5] it was 1.5 nM. Besides, the 50% growth inhibitory concentration (GI50) with Ba/F3 EGFR ASV ins cells amounted to 24 nM; in the series with Ri-1 cells (Ri-1, 72 h) it was 34.6 nM; in the series with DB cells, 2980 nM. In addition, the IC50 in series [2] worked out at 8.1 nM; in [3], 3.3 nM; on WT EGFR, 9.5 nM; on EGFR L858R&T790M, 0.5 nM; in series [6], 8.5 nM. For the same compound, the values for the intrinsic metabolic clearance (hepatocyte CLint) at 1 µM in [4] and in series [7] were 11.8 µL/min/1e6 cells and 67.7 µL/min/1e6 cells, respectively.

In the case of `C=CC(=O)Nc1cc(Nc2ncnc(Nc3cc(Cl)c(F)cc3C(C)(O)CC)n2)c(OC)cc1N1CC[C@@H](N(C)C)C1` (single isomer, unassigned) [Compound 69, N-(5-(4-(5-chloro-4-fluoro-2-((R)-2-hydroxybutan-2-yl)phenylamino)-1,3,5-triazin-2-ylamino)-2-((R)-3-(dimethylamino)pyrrolidin-1-yl)-4-methoxyphenyl)acrylamide or N-(5-(4-(5-chloro-4-fluoro-2-((S)-2-hydroxybutan-2-yl)phenylamino)-1,3,5-triazin-2-ylamino)-2-((R)-3-(dimethylamino)pyrrolidin-1-yl)-4-methoxyphenyl)acrylamide], the concentration for 50% growth inhibition (GI50) in series [1] worked out at 89.1 nM; in the series with OCI-LY-10 cells it was 74.5 nM; in the series on TMD-8 cells, 10.1 nM; in the series with Ba/F3 EGFR NPH ins cells, 58.1 nM; with WT EGFR cell line A-431 it was 12.2 nM; in series [5] it was 5.5 nM. Besides, the results for the GI50 in the series on Ba/F3 EGFR ASV ins cells, in the series with Ri-1 cells and with DB cells were 70.1 nM, 13.9 nM and more than 3000 nM, respectively. Moreover, the IC50 is 20.2 nM in series [2]; 33.1 nM in [3]; 56.2 nM against WT EGFR; 1.2 nM at EGFR L858R&T790M; 46.3 nM in series [6]. The hepatocyte CLint at 1 µM was 4.12 µL/min/1e6 cells in series [4] and 10.7 µL/min/1e6 cells in [7].

Source of the values: patent publication US20230293535A1, “ERBB/BTK INHIBITORS” (Dizal (Jiangsu) Pharmaceutical Co., Ltd., priority 2018, published 2023).
